Assays:
Experiment in all cases: Kinase Profiling (KINOMEscan)
Format in all cases: binding
[1] = target: 456 kinases (of these 395 non-mutant kinases) (Homo sapiens, UniProt P14616); settings: INSRR; 10 μM
[2] = target: 456 kinases (of these 395 non-mutant kinases) (Homo sapiens, UniProt P07333); settings: 10 μM
[3] = target: 456 kinases (of these 395 non-mutant kinases) (Homo sapiens, UniProt P45983); settings: JNK1; 10 μM
[4] = target: 456 kinases (of these 395 non-mutant kinases) (Homo sapiens, UniProt P54760); settings: EPHB4; 10 μM
[5] = target: 456 kinases (of these 395 non-mutant kinases) (Homo sapiens, UniProt P24941); settings: CDK2; 10 μM
[6] = target: 456 kinases (of these 395 non-mutant kinases) (Homo sapiens, UniProt P36896); settings: ACVR1B; 10 μM
[7] = target: 456 kinases (of these 395 non-mutant kinases) (Homo sapiens, UniProt P78356); settings: PIP5K2B; 10 μM
[8] = target: 456 kinases (of these 395 non-mutant kinases) (Homo sapiens, UniProt Q15746); settings: MYLK; 10 μM
[9] = target: 456 kinases (of these 395 non-mutant kinases) (Homo sapiens, UniProt Q6ZN16); settings: MAP3K15; 10 μM
[10] = target: 456 kinases (of these 395 non-mutant kinases) (Homo sapiens, UniProt P07949, V804L); settings: RET(V804L); 10 μM
[11] = target: 456 kinases (of these 395 non-mutant kinases) (Homo sapiens, UniProt Q9BQI3); settings: EIF2AK1; 10 μM
[12] = target: 456 kinases (of these 395 non-mutant kinases) (Homo sapiens, UniProt P29317); settings: EPHA2; 10 μM
[13] = target: 456 kinases (of these 395 non-mutant kinases) (Homo sapiens, UniProt P06239); settings: LCK; 10 μM
[14] = target: 456 kinases (of these 395 non-mutant kinases) (Homo sapiens, UniProt Q8IU85); settings: CAMK1D; 10 μM
[15] = target: 456 kinases (of these 395 non-mutant kinases) (Homo sapiens, UniProt P57058); settings: HUNK; 10 μM
[16] = target: 456 kinases (of these 395 non-mutant kinases) (Homo sapiens, UniProt P00533, DEL752-759); settings: EGFR(S752-I759del); 10 μM
[17] = target: 456 kinases (of these 395 non-mutant kinases) (Homo sapiens, UniProt Q8N4C8); settings: MINK; 10 μM
[18] = target: 456 kinases (of these 395 non-mutant kinases) (Homo sapiens, UniProt Q9UEE5); settings: DRAK1; 10 μM
[19] = target: 456 kinases (of these 395 non-mutant kinases) (Homo sapiens, UniProt Q96Q40); settings: PFTAIRE2; 10 μM
[20] = target: 456 kinases (of these 395 non-mutant kinases) (Homo sapiens, UniProt Q02763); settings: TIE2; 10 μM
[21] = target: 456 kinases (of these 395 non-mutant kinases) (Homo sapiens, UniProt O14936); settings: CASK; 10 μM
[22] = target: 456 kinases (of these 395 non-mutant kinases) (Homo sapiens, UniProt P52564); settings: MEK6; 10 μM
[23] = target: 456 kinases (of these 395 non-mutant kinases) (Homo sapiens, UniProt Q9H0K1); settings: SIK2; 10 μM
[24] = target: 456 kinases (of these 395 non-mutant kinases) (Homo sapiens, UniProt P51813); settings: BMX; 10 μM
[25] = target: 456 kinases (of these 395 non-mutant kinases) (Homo sapiens, UniProt P48729); settings: CSNK1A1; 10 μM
[26] = target: 456 kinases (of these 395 non-mutant kinases) (Homo sapiens, UniProt O75116); settings: ROCK2; 10 μM
[27] = target: 456 kinases (of these 395 non-mutant kinases) (Homo sapiens, UniProt O75716); settings: STK16; 10 μM
[28] = target: 456 kinases (of these 395 non-mutant kinases) (Homo sapiens, UniProt O75582); settings: 10 μM
[29] = target: 456 kinases (of these 395 non-mutant kinases) (Homo sapiens, UniProt P27361); settings: ERK1; 10 μM
[30] = target: 456 kinases (of these 395 non-mutant kinases) (Homo sapiens, UniProt Q9BRS2); settings: RIOK1; 10 μM
[31] = target: 456 kinases (of these 395 non-mutant kinases) (Homo sapiens, UniProt Q92918); settings: HPK1; 10 μM
[32] = target: 456 kinases (of these 395 non-mutant kinases) (Homo sapiens, UniProt P08581, M1250T); settings: MET(M1250T); 10 μM

456 kinases (of these 395 non-mutant kinases) (Homo sapiens, UniProt P07333), sequence (P07333 20-972 limits assumed, change not shown): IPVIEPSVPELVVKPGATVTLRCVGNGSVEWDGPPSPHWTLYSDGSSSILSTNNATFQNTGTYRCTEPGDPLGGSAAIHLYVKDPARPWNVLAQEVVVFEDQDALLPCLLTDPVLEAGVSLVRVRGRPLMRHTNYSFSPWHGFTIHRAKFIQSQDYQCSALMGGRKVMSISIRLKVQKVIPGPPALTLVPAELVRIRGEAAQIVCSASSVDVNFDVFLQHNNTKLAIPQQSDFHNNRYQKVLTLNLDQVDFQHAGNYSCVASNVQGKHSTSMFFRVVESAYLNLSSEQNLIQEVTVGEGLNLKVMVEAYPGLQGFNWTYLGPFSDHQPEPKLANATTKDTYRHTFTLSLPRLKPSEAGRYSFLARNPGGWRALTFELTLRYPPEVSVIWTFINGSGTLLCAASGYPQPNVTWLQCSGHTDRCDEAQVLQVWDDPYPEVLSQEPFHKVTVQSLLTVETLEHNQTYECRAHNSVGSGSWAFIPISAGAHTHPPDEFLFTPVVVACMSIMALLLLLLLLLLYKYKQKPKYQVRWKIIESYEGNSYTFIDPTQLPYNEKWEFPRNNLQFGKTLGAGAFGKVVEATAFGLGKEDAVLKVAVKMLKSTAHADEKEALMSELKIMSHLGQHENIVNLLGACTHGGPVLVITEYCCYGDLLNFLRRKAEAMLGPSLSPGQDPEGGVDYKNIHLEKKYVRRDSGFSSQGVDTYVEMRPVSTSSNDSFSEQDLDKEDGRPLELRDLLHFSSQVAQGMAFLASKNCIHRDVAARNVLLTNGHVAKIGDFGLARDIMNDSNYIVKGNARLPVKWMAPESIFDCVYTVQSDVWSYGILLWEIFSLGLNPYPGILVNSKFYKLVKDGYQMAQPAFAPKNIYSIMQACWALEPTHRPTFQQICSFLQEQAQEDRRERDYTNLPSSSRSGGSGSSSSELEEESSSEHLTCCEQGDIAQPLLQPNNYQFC
456 kinases (of these 395 non-mutant kinases) (Homo sapiens, UniProt P78356), sequence (P78356 2-416 limits assumed, change not shown): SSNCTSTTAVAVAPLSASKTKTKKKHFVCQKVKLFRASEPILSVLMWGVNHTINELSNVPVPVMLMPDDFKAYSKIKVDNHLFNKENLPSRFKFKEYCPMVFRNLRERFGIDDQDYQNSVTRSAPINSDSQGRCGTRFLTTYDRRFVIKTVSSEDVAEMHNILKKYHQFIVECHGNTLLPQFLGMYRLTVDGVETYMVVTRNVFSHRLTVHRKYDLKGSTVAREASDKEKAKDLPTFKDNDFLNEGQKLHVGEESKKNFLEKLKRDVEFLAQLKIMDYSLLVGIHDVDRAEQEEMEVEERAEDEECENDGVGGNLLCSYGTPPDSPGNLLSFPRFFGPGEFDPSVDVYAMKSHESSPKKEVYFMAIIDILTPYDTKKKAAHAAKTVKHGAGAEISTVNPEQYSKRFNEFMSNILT
456 kinases (of these 395 non-mutant kinases) (Homo sapiens, UniProt P07949, V804L), sequence (P07949 29-1114 V804L limits assumed): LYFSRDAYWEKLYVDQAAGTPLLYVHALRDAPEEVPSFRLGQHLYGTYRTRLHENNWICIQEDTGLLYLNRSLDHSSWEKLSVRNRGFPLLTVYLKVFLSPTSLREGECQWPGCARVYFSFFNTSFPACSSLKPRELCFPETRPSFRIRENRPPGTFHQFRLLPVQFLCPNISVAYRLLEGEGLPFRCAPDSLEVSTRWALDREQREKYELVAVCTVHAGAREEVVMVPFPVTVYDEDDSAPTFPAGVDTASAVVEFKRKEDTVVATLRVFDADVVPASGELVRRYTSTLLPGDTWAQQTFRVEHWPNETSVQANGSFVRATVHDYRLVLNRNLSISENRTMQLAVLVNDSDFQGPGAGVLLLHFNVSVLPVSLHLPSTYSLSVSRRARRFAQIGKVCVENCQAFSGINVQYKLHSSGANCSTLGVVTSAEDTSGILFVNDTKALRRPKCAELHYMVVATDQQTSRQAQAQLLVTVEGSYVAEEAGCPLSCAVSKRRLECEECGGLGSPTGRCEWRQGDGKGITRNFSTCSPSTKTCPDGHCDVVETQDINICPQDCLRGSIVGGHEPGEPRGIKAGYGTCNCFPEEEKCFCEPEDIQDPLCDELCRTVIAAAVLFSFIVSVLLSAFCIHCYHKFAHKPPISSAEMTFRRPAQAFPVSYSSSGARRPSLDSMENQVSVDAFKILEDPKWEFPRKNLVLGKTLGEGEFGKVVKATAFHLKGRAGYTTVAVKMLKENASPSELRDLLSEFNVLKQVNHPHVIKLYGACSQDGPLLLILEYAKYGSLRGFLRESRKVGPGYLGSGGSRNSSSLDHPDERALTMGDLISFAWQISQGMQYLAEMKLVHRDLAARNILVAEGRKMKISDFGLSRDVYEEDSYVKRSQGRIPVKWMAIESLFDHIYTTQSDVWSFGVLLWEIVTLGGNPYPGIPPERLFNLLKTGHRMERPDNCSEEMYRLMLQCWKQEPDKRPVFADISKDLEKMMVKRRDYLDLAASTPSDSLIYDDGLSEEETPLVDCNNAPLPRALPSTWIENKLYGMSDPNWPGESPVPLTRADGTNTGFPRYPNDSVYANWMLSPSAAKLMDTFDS
456 kinases (of these 395 non-mutant kinases) (Homo sapiens, UniProt P48729), sequence (P48729 2-337 limits assumed, change not shown): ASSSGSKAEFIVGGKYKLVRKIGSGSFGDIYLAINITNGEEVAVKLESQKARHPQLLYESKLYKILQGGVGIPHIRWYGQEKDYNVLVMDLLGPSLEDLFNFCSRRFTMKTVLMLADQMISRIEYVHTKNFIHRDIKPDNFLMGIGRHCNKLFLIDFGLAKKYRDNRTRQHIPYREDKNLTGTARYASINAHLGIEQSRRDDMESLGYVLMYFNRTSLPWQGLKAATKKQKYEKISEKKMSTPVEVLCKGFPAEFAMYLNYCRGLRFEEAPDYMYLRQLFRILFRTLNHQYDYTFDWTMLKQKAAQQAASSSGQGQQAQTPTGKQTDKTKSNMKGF
456 kinases (of these 395 non-mutant kinases) (Homo sapiens, UniProt P36896), sequence (P36896 24-505 limits assumed, change not shown): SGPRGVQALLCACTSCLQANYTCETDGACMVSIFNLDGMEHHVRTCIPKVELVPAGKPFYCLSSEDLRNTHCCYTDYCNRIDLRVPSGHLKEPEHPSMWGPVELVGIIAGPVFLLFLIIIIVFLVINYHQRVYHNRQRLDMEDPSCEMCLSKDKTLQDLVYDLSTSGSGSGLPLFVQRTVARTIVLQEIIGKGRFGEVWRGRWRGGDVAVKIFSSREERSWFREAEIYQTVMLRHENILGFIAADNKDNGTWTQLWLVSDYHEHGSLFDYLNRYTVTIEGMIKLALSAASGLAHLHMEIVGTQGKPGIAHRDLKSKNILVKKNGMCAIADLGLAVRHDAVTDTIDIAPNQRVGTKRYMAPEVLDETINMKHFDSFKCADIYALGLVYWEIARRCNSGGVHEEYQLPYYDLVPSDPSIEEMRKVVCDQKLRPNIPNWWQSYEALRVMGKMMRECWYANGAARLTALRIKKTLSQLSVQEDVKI
456 kinases (of these 395 non-mutant kinases) (Homo sapiens, UniProt P54760), sequence (P54760 16-987 limits assumed, change not shown): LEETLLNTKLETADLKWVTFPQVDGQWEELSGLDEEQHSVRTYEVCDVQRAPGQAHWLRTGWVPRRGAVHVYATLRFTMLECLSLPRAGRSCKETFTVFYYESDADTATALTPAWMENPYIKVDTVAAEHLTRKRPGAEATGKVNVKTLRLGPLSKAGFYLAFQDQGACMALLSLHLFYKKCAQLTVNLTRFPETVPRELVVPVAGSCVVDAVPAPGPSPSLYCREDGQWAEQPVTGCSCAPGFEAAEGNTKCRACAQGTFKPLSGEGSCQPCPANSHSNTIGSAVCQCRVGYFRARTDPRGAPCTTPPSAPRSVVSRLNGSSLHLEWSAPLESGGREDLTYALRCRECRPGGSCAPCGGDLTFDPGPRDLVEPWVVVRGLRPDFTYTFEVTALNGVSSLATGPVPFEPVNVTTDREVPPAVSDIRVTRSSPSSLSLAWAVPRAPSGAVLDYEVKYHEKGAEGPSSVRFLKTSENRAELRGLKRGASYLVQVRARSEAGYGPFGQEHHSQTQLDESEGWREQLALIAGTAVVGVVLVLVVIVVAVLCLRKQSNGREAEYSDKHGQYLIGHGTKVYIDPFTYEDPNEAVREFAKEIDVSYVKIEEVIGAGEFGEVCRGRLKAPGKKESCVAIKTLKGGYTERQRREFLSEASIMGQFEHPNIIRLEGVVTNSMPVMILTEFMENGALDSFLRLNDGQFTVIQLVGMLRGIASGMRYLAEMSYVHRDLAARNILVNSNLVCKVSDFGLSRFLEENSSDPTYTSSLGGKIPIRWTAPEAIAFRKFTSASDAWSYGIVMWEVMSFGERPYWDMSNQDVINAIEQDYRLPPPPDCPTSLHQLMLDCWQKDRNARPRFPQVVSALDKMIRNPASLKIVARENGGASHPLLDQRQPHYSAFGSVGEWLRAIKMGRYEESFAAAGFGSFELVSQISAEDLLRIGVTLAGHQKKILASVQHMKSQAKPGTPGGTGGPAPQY
456 kinases (of these 395 non-mutant kinases) (Homo sapiens, UniProt O75716), sequence (O75716 2-305 limits assumed, change not shown): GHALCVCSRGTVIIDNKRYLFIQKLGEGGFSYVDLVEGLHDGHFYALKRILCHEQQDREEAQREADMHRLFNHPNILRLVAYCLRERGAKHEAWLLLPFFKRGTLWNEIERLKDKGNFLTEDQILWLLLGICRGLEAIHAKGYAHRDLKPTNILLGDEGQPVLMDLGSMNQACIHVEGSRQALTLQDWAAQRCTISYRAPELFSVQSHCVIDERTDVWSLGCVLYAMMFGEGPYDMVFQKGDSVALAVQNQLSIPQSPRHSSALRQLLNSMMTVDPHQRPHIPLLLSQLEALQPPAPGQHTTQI
456 kinases (of these 395 non-mutant kinases) (Homo sapiens, UniProt P27361), sequence (P27361 2-379 limits assumed, change not shown): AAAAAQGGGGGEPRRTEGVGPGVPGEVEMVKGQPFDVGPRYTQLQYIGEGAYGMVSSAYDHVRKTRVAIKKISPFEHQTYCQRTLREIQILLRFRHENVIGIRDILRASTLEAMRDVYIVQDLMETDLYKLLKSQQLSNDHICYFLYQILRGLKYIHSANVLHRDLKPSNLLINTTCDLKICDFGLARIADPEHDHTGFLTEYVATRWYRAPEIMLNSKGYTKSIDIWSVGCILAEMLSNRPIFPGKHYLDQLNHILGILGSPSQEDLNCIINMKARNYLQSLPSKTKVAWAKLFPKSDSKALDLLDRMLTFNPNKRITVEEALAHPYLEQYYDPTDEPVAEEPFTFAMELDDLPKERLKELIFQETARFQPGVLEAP

CCc1ccccc1NC(=O)c1c(C)nsc1Nc1cnc2cc(F)ccc2n1 [Example 20, N-(2-Ethylphenyl)-5-[(6-fluoroquinoxalin-2-yl)amino]-3-methyl-1,2-thiazole-4-carboxamide]
% Ctrl @ 10 μM [1]: 76 % Ctrl | % Ctrl @ 10 μM ([2]; CSF1R-autoinhibited): 91 % Ctrl | % Ctrl @ 10 μM ([2]; CSF1R): 100 % Ctrl | % Ctrl @ 10 μM [3]: 100 % Ctrl | % Ctrl @ 10 μM [4]: 96 % Ctrl | % Ctrl @ 10 μM [5]: 100 % Ctrl | % Ctrl @ 10 μM [6]: 100 % Ctrl | % Ctrl @ 10 μM [7]: 86 % Ctrl | % Ctrl @ 10 μM [8]: 87 % Ctrl | % Ctrl @ 10 μM [9]: 100 % Ctrl | % Ctrl @ 10 μM [10]: 89 % Ctrl | % Ctrl @ 10 μM [11]: 100 % Ctrl | % Ctrl @ 10 μM [12]: 88 % Ctrl | % Ctrl @ 10 μM [13]: 94 % Ctrl | % Ctrl @ 10 μM [14]: 87 % Ctrl | % Ctrl @ 10 μM [15]: 93 % Ctrl | % Ctrl @ 10 μM [16]: 100 % Ctrl | % Ctrl @ 10 μM [17]: 100 % Ctrl | % Ctrl @ 10 μM [18]: 100 % Ctrl | % Ctrl @ 10 μM [19]: 84 % Ctrl | % Ctrl @ 10 μM [20]: 100 % Ctrl | % Ctrl @ 10 μM [21]: 87 % Ctrl | % Ctrl @ 10 μM [22]: 95 % Ctrl | % Ctrl @ 10 μM [23]: 84 % Ctrl | % Ctrl @ 10 μM [24]: 95 % Ctrl | % Ctrl @ 10 μM [25]: 92 % Ctrl | % Ctrl @ 10 μM [26]: 100 % Ctrl | % Ctrl @ 10 μM [27]: 100 % Ctrl | % Ctrl @ 10 μM ([28]; RPS6KA5(Kin.Dom.1-N-terminal)): 100 % Ctrl | % Ctrl @ 10 μM ([28]; RPS6KA5(Kin.Dom.2-C-terminal)): 100 % Ctrl | % Ctrl @ 10 μM [29]: 100 % Ctrl | % Ctrl @ 10 μM [30]: 100 % Ctrl | % Ctrl @ 10 μM [31]: 60 % Ctrl | % Ctrl @ 10 μM [32]: 100 % Ctrl

— US9682995B2, “Amino-substituted isothiazoles” (BAYER PHARMA AKTIENGESELLSCHAFT, priority 2013, dated 2017)
